{"source": "patent US20110311661A1", "about": "“Plant Extracts and Dermatological Uses Thereof” (priority 2003, published 2011)", "key": {"human skin keratinocytes": {"test_system": "human skin keratinocytes", "assay": "IL-8 release ELISA", "type": "cell-based", "settings": "positive control at 2.5 μM; 48 hours", "procedure": "The amount of Interleukin-8 (IL-8) released after exposure of keratinocytes to a plant extract, as described below, can be used to quantify any possible irritation reaction to the extract.\nIL-8 release was evaluated in human skin keratinocytes (Cascade Biologics, Portland, Oreg.) using the Quantikine hIL-8 ELISA kit (R&D Systems, Minneapolis, Minn.). Keratinocytes were first grown in a 96-well plate using the complete M154 (M154+HKGS from Cascade Biologics). This media was also used as control. Phorbol 12-myristate 13-acetate (PMA) (Sigma-Aldrich Canada, Oakville, Ontario) at a concentration of 2.5 μM was used as a positive control. All tested plant extracts and the controls were diluted in complete M154 at a non-cytotoxic concentration (i.e. the concentration that provided 100% viability of keratinocytes as shown in Table 10). Cells were seeded into 96-well plates at a concentration of 8×10^3 cells/well in complete M154 media. Plates were incubated for 48 hours at 37° C. in a humidified 5% CO2 atmosphere. After incubation, the medium was removed and 200 μl of sample was added to the wells (all in duplicate). […]\nAfter incubation, each well was washed four times with wash buffer. […] The plate was then gently mixed and the absorbance read at 450 nm on the Spectrafluor Plus plate reader (Tecan). The reading was taken within 15 minutes following addition of the stop solution. […]"}, "human skin fibroblasts": {"test_system": "human skin fibroblasts", "assay": "Inhibition of dermal contraction, fibroblast-populated collagen I gel", "type": "cell-based", "settings": "positive control at 50 μM; collagen gels up to 7 days", "protocol": "The skin model comprises human skin fibroblasts imbedded in a collagen I matrix and provides an in vitro representation of dermal contraction resulting from tractional forces generated by fibroblasts.\nThe ability of exemplary plant extracts to inhibit dermal contraction was evaluated on human skin fibroblasts (Cascade Biologics, Portland, Oreg.). The cells were imbedded in a collagen I matrix to create a derm-like environment. Fibroblasts were grown in complete M106 to 80% confluence. Free-floating fibroblast-populated collagen gels were prepared in 24-well plates. […] The mix was kept on ice until distribution. The derm-like gels were allowed to polymerize for 1 hour at 37° C. in a humidified 5% CO2 atmosphere. After incubation, the gels were detached from the wells. […] FBS at a final concentration of 10% was added to each well. The plate was incubated for a maximum of 7 days at 37° C. in a humidified 5% CO2 atmosphere. All assays were performed in duplicate. Contraction was measured beginning at day 3. Contracting gels were digitally photographed and the gel areas were calculated using ImagePro software."}}}
{"smiles": "CCCCCCCCCCCCCC(=O)O[C@@H]1[C@@H](C)[C@@]2(O)[C@@H](C=C(CO)C[C@]3(O)C(=O)C(C)=C[C@@H]23)[C@@H]2C(C)(C)[C@]12OC(C)=O", "note": "[PMA, Phorbol 12-myristate 13-acetate]", "values": [{"measurement": "IL-8 release", "setting": "human skin keratinocytes", "value": "highest level of IL-8 release"}]}
{"smiles": "CNC(=O)[C@H](Cc1c[nH]c2ccccc12)NC(=O)[C@@H](CC(=O)NO)CC(C)C", "note": "[GM6001]", "values": [{"measurement": "inhibition of contraction", "setting": "human skin fibroblasts", "value": "limited, but not complete, inhibition of contraction"}]}
